Test results from the supplement of paper PMC10307832.

Legend:
Assay in all cases: relative viability (nuclei count vs DMSO), 5 days (fraction); higher = more cells survive
[1] = compound: C(C(=O)C(=O)O)Br [Bromopyruvate] + CCNC(=O)c1noc(-c2cc(C(C)C)c(O)cc2O)c1-c1ccc(CN2CCOCC2)cc1 [Luminespib] (partner 0.01 µM)
Outline: (§1)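 Cells from lung cancer lines were seeded into 1536-well plates and, one day later, dosed by pin tool. Treatments were either a single drug or a fixed dose of an anchor drug with five library-drug doses (not always all listed) in √10 steps. After 5 days, nuclei were stained in a one-step fixation (final 0.05% Triton X-100, 1% formaldehyde, 1 ug/ml Hoechst) and counted on 4× images, and relative viability is the treated-to-vehicle nuclei ratio, as the median of duplicate plates.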

[2] = compound: CC(O)(CS(=O)(=O)c1ccc(F)cc1)C(=O)Nc1ccc(C#N)c(C(F)(F)F)c1 [Bicalutamide] + C[C@]1(O)C[C@@H](c2nc(-c3ccc4ccc(-c5ccccc5)nc4c3)c3c(N)nccn32)C1 [Linsitinib] (partner 1 µM)
Outline: as §1

[3] = compound: C(C(=O)C(=O)O)Br [Bromopyruvate] + Nc1ncn([C@H]2C[C@H](O)[C@@H](CO)O2)c(=O)n1 [Decitabine] (partner 2 µM)
Outline: as §1

[4] = compound: C(C(=O)C(=O)O)Br [Bromopyruvate] + N=C(N)NC(=N)NCCc1ccccc1 [Phenformin] (partner 250 µM)
Outline: as §1

Cell Line	relative viability ([1]; first compound 1 µM)	relative viability ([1]; first compound 3.162 µM)	relative viability ([1]; first compound 10 µM)	relative viability ([1]; first compound 31.62 µM)	relative viability ([1]; first compound 100 µM)	relative viability ([2]; first compound 0.08 µM)	relative viability ([2]; first compound 0.253 µM)	relative viability ([2]; first compound 0.8 µM)	relative viability ([2]; first compound 2.53 µM)	relative viability ([3]; first compound 1 µM)	relative viability ([3]; first compound 3.162 µM)	relative viability ([3]; first compound 10 µM)	relative viability ([3]; first compound 31.62 µM)	relative viability ([3]; first compound 100 µM)	relative viability ([4]; first compound 1 µM)	relative viability ([4]; first compound 3.162 µM)	relative viability ([4]; first compound 10 µM)	relative viability ([4]; first compound 31.62 µM)	relative viability ([4]; first compound 100 µM)
NCI-H2087	0.141	0.176	0.16	0.175	0.161	1.03	1.07	0.95	0.77	0.307	0.318	0.248	0.305	0.259	0.493	0.445	0.578	0.414	0.392
NCI-H1793	0.207	0.148	0.145	0.218	0.303	0.731	0.568	0.894	0.686	0.535	0.472	0.697	0.393	0.516	0.382	0.452	0.455	0.413	0.401
LC-2-ad	1.02	1.11	1.21	1.04	0.843	0.818	0.796	0.847	0.891	0.856	0.726	0.797	0.872	0.695	0.564	0.621	0.576	0.599	0.525
COR-L 105	0.775	0.827	0.925	0.692	0.552	0.941	0.93	0.899	0.815	0.59	0.674	0.75	0.706	0.525	0.488	0.438	0.484	0.405	0.391
NCI-H1355	0.721	0.77	0.649	0.735	0.698	0.781	0.782	0.957	0.805	0.382	0.328	0.316	0.343	0.336	0.473	0.481	0.442	0.483	0.504
H3255	0.859	1	1.05	0.896	1.04	0.949	0.848	1.08	0.867	0.514	0.705	0.794	0.609	0.622	0.365	0.421	0.432	0.399	0.37
NCI-H2009	1	1.09	0.953	1.01	0.708	1.19	1.12	1.16	1.16	0.352	0.42	0.336	0.349	0.261	0.476	0.493	0.507	0.475	0.344
NCI-H1734	0.174	0.225	0.212	0.175	0.201	0.87	0.76	0.947	0.863	0.505	0.507	0.629	0.502	0.457	0.342	0.471	0.513	0.392	0.385
